Measured values from US8969516B2, “Method of hydrolysis of peptide bond” (priority 2006, dated 2015).

Assay: MALDI-TOF screening of Ni^2+ dependent hydrolysis in a combinatorial peptide library
Assay type: physicochemical
Settings: Ni^2+ 2 mM, pH 8.2, 10 mM Tris, score=24/tm
Text: The sequence CH3CO-Gly-Ala-Ser/Thr-X-His-Z-Lys-Phe-Leu-NH2 was designed so that the fixed R1 and R2 sequences, CH3CO-Gly-Ala, and Lys-Phe-Leu-NH2, respectively, allowed optimal detection by MALDI-TOF mass spectrometry of substrates as well as expected products, Ser/Thr-X-His-Z-Lys-Phe-Leu-NH2 and assured separation between the clusters of signals for substrates and products in sublibraries (see below).
Residues in position X included all amino acids commonly present in proteins, except for Asp, Glu, and Cys. The former two contain carboxylates in their side chains, which may bind Ni^2+ in a way which would quench or slow down the hydrolysis reaction. The Cys residue may do the same, and also may engage in side reactions with Ni^2+ ions, including redox processes (for example see Bal and Kasprzak, Toxicol. Lett. 2002, 127, 55-62). Only the Cys residue was eliminated from position Z, for the same reasons.
The synthesis of the library was accomplished on a RINK amide resin (Novabiochem) on a 800 mg scale, according to a typical Fmoc protocol (Fields, Meth. Enzymol. Vol. 289). The resin-attached Leu-Phe-Lys peptide was synthesised first and coupled with the isokinetic mixture of 19 amino acids selected for position Z, and then with the H is residue. The resin carrying the library of pentapeptides was divided into Ser and Thr halves at this stage, and each of these halves into 17 portions, which were coupled with individual amino acids selected for position X. The coupling with Ser or Thr as appropriate, additions of Ala and Gly residues, acetylation of Gly, deprotection and cleavage from the resin were accomplished subsequently. Each of the resulting 34 samples of sublibraries randomized at position X was separated into two portions, one for the reaction at 37° C. and another for the reaction at 45° C. The hydrolysis reactions were accomplished in 10 mM Tris buffers at pH 8.2. The total concentrations of peptide mixtures and Ni^2+ ions were 1 mM and 2 mM, respectively. The pH for the reaction was chosen as selective for highly reactive sequences.
The detection of reaction products was accomplished with the use of a MALDI-TOF mass spectrometer (Micromass). The aliquots were removed from reaction mixtures and measured by MS at 2, 4, 6, and 8 hours of incubation. The progress of reaction was evaluated by visual detection in mass spectra of appearance of signals corresponding to expected products of hydrolysis, Ser/Thr-X-His-Z-Lys-Phe-Leu-NH2, at given measurement times, tm. […] Also the decrease of signals of substrates was controlled in these cases.
Residues X and Z were then sorted according to various molecular parameters, describing their physical properties (Carugo, In Silico Biol. 2003, 3, 0035). […] The Ser library provided a higher number of reactive peptides than the Thr library. Following the additivity of effects, the scores were also summed up in lines and columns of Table 1A-D, thereby creating final rankings for preferred substitutions in positions X and Z.

[1] = CH3CO-Gly-Ala-Ser-X-His-Z-Lys-Phe-Leu-NH2 library, 37° C.
[2] = CH3CO-Gly-Ala-Ser-X-His-Z-Lys-Phe-Leu-NH2 library, 45° C.
[3] = CH3CO-Gly-Ala-Thr-X-His-Z-Lys-Phe-Leu-NH2 library, 45° C.
[4] = CH3CO-Gly-Ala-Thr-X-His-Z-Lys-Phe-Leu-NH2 library, 37° C.

## Ac-GASVHFKFL-NH2 [SVHF]
[1]
  hydrolysis score from MALDI-TOF screening: 0 (a score of 0 if no trace of the product of hydrolysis was seen after 8 hours of incubation)
[2]
  hydrolysis score from MALDI-TOF screening: 3 (a score of 3 for detection at 8 hours)

## Ac-GASGHIKFL-NH2 [SGHI]
[1]
  hydrolysis score from MALDI-TOF screening: 0 (a score of 0 if no trace of the product of hydrolysis was seen after 8 hours of incubation)
[2]
  hydrolysis score from MALDI-TOF screening: 3 (a score of 3 for detection at 8 hours)

## Ac-GATPHVKFL-NH2 [TPHV]
[3]
  hydrolysis score from MALDI-TOF screening: 0 (a score of 0 if no trace of the product of hydrolysis was seen after 8 hours of incubation)

## Ac-GATKHIKFL-NH2 [TKHI]
[4]
  hydrolysis score from MALDI-TOF screening: 4 (a score of 4 for detection at 6 hours)
[3]
  hydrolysis score from MALDI-TOF screening: 12 (a score of 12, if it was seen to be partially hydrolysed at 2 hours)

## Ac-GATSHKKFL-NH2 [TSHK]
[4]
  hydrolysis score from MALDI-TOF screening: 0 (a score of 0 if no trace of the product of hydrolysis was seen after 8 hours of incubation)
[3]
  hydrolysis score from MALDI-TOF screening: 0 (a score of 0 if no trace of the product of hydrolysis was seen after 8 hours of incubation)

## Ac-GASSHYKFL-NH2 [SSHY]
[1]
  hydrolysis score from MALDI-TOF screening: 3 (a score of 3 for detection at 8 hours)
[2]
  hydrolysis score from MALDI-TOF screening: 3 (a score of 3 for detection at 8 hours)

## Ac-GATYHPKFL-NH2 [TYHP]
[4]
  hydrolysis score from MALDI-TOF screening: 0 (a score of 0 if no trace of the product of hydrolysis was seen after 8 hours of incubation)
[3]
  hydrolysis score from MALDI-TOF screening: 0 (a score of 0 if no trace of the product of hydrolysis was seen after 8 hours of incubation)

## Ac-GATIHRKFL-NH2 [TIHR]
[4]
  hydrolysis score from MALDI-TOF screening: 0 (a score of 0 if no trace of the product of hydrolysis was seen after 8 hours of incubation)
[3]
  hydrolysis score from MALDI-TOF screening: 3 (a score of 3 for detection at 8 hours)

## Ac-GATLHIKFL-NH2 [TLHI]
[4]
  hydrolysis score from MALDI-TOF screening: 0 (a score of 0 if no trace of the product of hydrolysis was seen after 8 hours of incubation)
[3]
  hydrolysis score from MALDI-TOF screening: 0 (a score of 0 if no trace of the product of hydrolysis was seen after 8 hours of incubation)

## Ac-GASYHEKFL-NH2 [SYHE]
[1]
  hydrolysis score from MALDI-TOF screening: 0 (a score of 0 if no trace of the product of hydrolysis was seen after 8 hours of incubation)
[2]
  hydrolysis score from MALDI-TOF screening: 0 (a score of 0 if no trace of the product of hydrolysis was seen after 8 hours of incubation)

## Ac-GASNHIKFL-NH2 [SNHI]
[1]
  hydrolysis score from MALDI-TOF screening: 4 (a score of 4 for detection at 6 hours)
[2]
  hydrolysis score from MALDI-TOF screening: 4 (a score of 4 for detection at 6 hours)

## Ac-GASAHWKFL-NH2 [SAHW]
[1]
  hydrolysis score from MALDI-TOF screening: 4 (a score of 4 for detection at 6 hours)
[2]
  hydrolysis score from MALDI-TOF screening: 6 (a score of 6 for detection at 4 hours)

## Ac-GATAHSKFL-NH2 [TAHS]
[4]
  hydrolysis score from MALDI-TOF screening: 0 (a score of 0 if no trace of the product of hydrolysis was seen after 8 hours of incubation)
[3]
  hydrolysis score from MALDI-TOF screening: 0 (a score of 0 if no trace of the product of hydrolysis was seen after 8 hours of incubation)

## Ac-GATLHVKFL-NH2 [TLHV]
[4]
  hydrolysis score from MALDI-TOF screening: 0 (a score of 0 if no trace of the product of hydrolysis was seen after 8 hours of incubation)
[3]
  hydrolysis score from MALDI-TOF screening: 0 (a score of 0 if no trace of the product of hydrolysis was seen after 8 hours of incubation)

## Ac-GASGHFKFL-NH2 [SGHF]
[1]
  hydrolysis score from MALDI-TOF screening: 0 (a score of 0 if no trace of the product of hydrolysis was seen after 8 hours of incubation)
[2]
  hydrolysis score from MALDI-TOF screening: 0 (a score of 0 if no trace of the product of hydrolysis was seen after 8 hours of incubation)

## Ac-GASSHWKFL-NH2 [SSHW]
[1]
  hydrolysis score from MALDI-TOF screening: 6 (a score of 6 for detection at 4 hours)
[2]
  hydrolysis score from MALDI-TOF screening: 12 (a score of 12, if it was seen to be partially hydrolysed at 2 hours)

## Ac-GASTHRKFL-NH2 [STHR]
[1]
  hydrolysis score from MALDI-TOF screening: 3 (a score of 3 for detection at 8 hours)
[2]
  hydrolysis score from MALDI-TOF screening: 6 (a score of 6 for detection at 4 hours)

## Ac-GASMHDKFL-NH2 [SMHD]
[1]
  hydrolysis score from MALDI-TOF screening: 0 (a score of 0 if no trace of the product of hydrolysis was seen after 8 hours of incubation)
[2]
  hydrolysis score from MALDI-TOF screening: 0 (a score of 0 if no trace of the product of hydrolysis was seen after 8 hours of incubation)

## Ac-GASLHHKFL-NH2 [SLHH]
[1]
  hydrolysis score from MALDI-TOF screening: 0 (a score of 0 if no trace of the product of hydrolysis was seen after 8 hours of incubation)
[2]
  hydrolysis score from MALDI-TOF screening: 0 (a score of 0 if no trace of the product of hydrolysis was seen after 8 hours of incubation)

## Ac-GATRHYKFL-NH2 [TRHY]
[4]
  hydrolysis score from MALDI-TOF screening: 4 (a score of 4 for detection at 6 hours)
[3]
  hydrolysis score from MALDI-TOF screening: 6 (a score of 6 for detection at 4 hours)

## Ac-GATVHHKFL-NH2 [TVHH]
[4]
  hydrolysis score from MALDI-TOF screening: 0 (a score of 0 if no trace of the product of hydrolysis was seen after 8 hours of incubation)
[3]
  hydrolysis score from MALDI-TOF screening: 0 (a score of 0 if no trace of the product of hydrolysis was seen after 8 hours of incubation)

## Ac-GASRHDKFL-NH2 [SRHD]
[1]
  hydrolysis score from MALDI-TOF screening: 0 (a score of 0 if no trace of the product of hydrolysis was seen after 8 hours of incubation)
[2]
  hydrolysis score from MALDI-TOF screening: 0 (a score of 0 if no trace of the product of hydrolysis was seen after 8 hours of incubation)

## Ac-GATMHSKFL-NH2 [TMHS]
[4]
  hydrolysis score from MALDI-TOF screening: 0 (a score of 0 if no trace of the product of hydrolysis was seen after 8 hours of incubation)
[3]
  hydrolysis score from MALDI-TOF screening: 0 (a score of 0 if no trace of the product of hydrolysis was seen after 8 hours of incubation)

## Ac-GATQHKKFL-NH2 [TQHK]
[4]
  hydrolysis score from MALDI-TOF screening: 0 (a score of 0 if no trace of the product of hydrolysis was seen after 8 hours of incubation)
[3]
  hydrolysis score from MALDI-TOF screening: 3 (a score of 3 for detection at 8 hours)

## Ac-GASKHNKFL-NH2 [SKHN]
[1]
  hydrolysis score from MALDI-TOF screening: 0 (a score of 0 if no trace of the product of hydrolysis was seen after 8 hours of incubation)
[2]
  hydrolysis score from MALDI-TOF screening: 0 (a score of 0 if no trace of the product of hydrolysis was seen after 8 hours of incubation)

## Ac-GASIHNKFL-NH2 [SIHN]
[1]
  hydrolysis score from MALDI-TOF screening: 0 (a score of 0 if no trace of the product of hydrolysis was seen after 8 hours of incubation)
[2]
  hydrolysis score from MALDI-TOF screening: 0 (a score of 0 if no trace of the product of hydrolysis was seen after 8 hours of incubation)

## Ac-GASIHSKFL-NH2 [SIHS]
[1]
  hydrolysis score from MALDI-TOF screening: 0 (a score of 0 if no trace of the product of hydrolysis was seen after 8 hours of incubation)
[2]
  hydrolysis score from MALDI-TOF screening: 0 (a score of 0 if no trace of the product of hydrolysis was seen after 8 hours of incubation)

## Ac-GATAHYKFL-NH2 [TAHY]
[4]
  hydrolysis score from MALDI-TOF screening: 0 (a score of 0 if no trace of the product of hydrolysis was seen after 8 hours of incubation)
[3]
  hydrolysis score from MALDI-TOF screening: 0 (a score of 0 if no trace of the product of hydrolysis was seen after 8 hours of incubation)

## Ac-GATVHSKFL-NH2 [TVHS]
[4]
  hydrolysis score from MALDI-TOF screening: 0 (a score of 0 if no trace of the product of hydrolysis was seen after 8 hours of incubation)
[3]
  hydrolysis score from MALDI-TOF screening: 0 (a score of 0 if no trace of the product of hydrolysis was seen after 8 hours of incubation)

## Ac-GASYHHKFL-NH2 [SYHH]
[1]
  hydrolysis score from MALDI-TOF screening: 4 (a score of 4 for detection at 6 hours)
[2]
  hydrolysis score from MALDI-TOF screening: 4 (a score of 4 for detection at 6 hours)

## Ac-GASVHEKFL-NH2 [SVHE]
[1]
  hydrolysis score from MALDI-TOF screening: 0 (a score of 0 if no trace of the product of hydrolysis was seen after 8 hours of incubation)
[2]
  hydrolysis score from MALDI-TOF screening: 0 (a score of 0 if no trace of the product of hydrolysis was seen after 8 hours of incubation)

## Ac-GATPHSKFL-NH2 [TPHS]
[3]
  hydrolysis score from MALDI-TOF screening: 0 (a score of 0 if no trace of the product of hydrolysis was seen after 8 hours of incubation)

## Ac-GASNHWKFL-NH2 [SNHW]
[1]
  hydrolysis score from MALDI-TOF screening: 6 (a score of 6 for detection at 4 hours)
[2]
  hydrolysis score from MALDI-TOF screening: 6 (a score of 6 for detection at 4 hours)
